Reference: patent US12629446B2, “Vascular embolic system” (3-D Matrix, Ltd., priority 2012, dated 2026)

Design: species or system Yorkshire cross swine
Details: in vivo
Description: PuraMatrix™, a peptide solution comprising Ac-RADARADARADARADA-NH2 (Ac-Arg-Ala-Asp-Ala-Arg-Ala-Asp-Ala-Arg-Ala-Asp-Ala-Arg-Ala-Asp-Ala-NH2) (SEQ ID NO: 58) in water was used as an embolic agent in a porcine model through angiography, gross necropsy assessment, and histopathology assessment. One female Yorkshire cross swine was tested. The weight of the swine at the time of testing was 46.5 kg. Feed and water were provided per standard operating procedures. There were no contaminants in the food or water that were expected to interfere with the conduct or results of the study. The swine was acquired from a test facility approved animal supplier. The Swine participated in an incoming physical exam, and after a period of acclimation was again examined. The swine was fasted a minimum of 12 hours prior to the procedures. The animals were sedated and anesthetized by an intramuscular or subcutaneous injection of Telazol (2-10 mg/kg) and Xylazine (0.5=5.0 mg/kg). Propofol (to effect) was given to aid in sedation. An endotracheal tube was used to ensure proper ventilation and the animals were maintained under general anesthesia with inhalant isofluorante (0.1 to 5.0%). Heparin (50-300 units/kg, IV) was administered throughout the procedure.
On the day of testing, the swine was 2 months, 25 days old. The swine was sedated and prepared for surgery. […]

## Ac-RADARADARADARADA-NH2 [PuraMatrix™]
  adverse events throughout the testing: no adverse events
